By Kd is commonly meant a measure of binding affinity in units of concentration.

Experimental findings from US10786580B2, “Cholecystokinin 2 receptor targeted NIR imaging and use thereof” (On Target Laboratories, LLC, priority 2016, dated 2020) are described below.

The subject of one data set is HEK-CCK2 cells. Description: Epi-fluorescence microscopy of binding to CCK2R expressing HEK cells. In kind it is cell-based, human. As to conditions: FIGS. 14c & d. As for the experimental part:
(§1) HEK-CCK2 cells (a human embryonic kidney cells transfected with CCK2 receptor) were a kind gift from Dr. Mark Hellmich (University of Texas Medical Branch, Galveston, Tex.) and grown as a monolayer using Dulbecco's Modified Eagles Medium (GIBCO) (Gibco, NY) 10% heat-inactivated fetal bovine serum (Atlanta Biological, GA) and 1% penicillin streptomycin (Gibco, NY) in a 5% carbon dioxide: 95% air-humidified atmosphere at 37° C. for at least six passages before they were used for the assays.

The next data set deals with T1, CCK2R (Homo sapiens, UniProt P32239).
T1 sequence (P32239 1-447): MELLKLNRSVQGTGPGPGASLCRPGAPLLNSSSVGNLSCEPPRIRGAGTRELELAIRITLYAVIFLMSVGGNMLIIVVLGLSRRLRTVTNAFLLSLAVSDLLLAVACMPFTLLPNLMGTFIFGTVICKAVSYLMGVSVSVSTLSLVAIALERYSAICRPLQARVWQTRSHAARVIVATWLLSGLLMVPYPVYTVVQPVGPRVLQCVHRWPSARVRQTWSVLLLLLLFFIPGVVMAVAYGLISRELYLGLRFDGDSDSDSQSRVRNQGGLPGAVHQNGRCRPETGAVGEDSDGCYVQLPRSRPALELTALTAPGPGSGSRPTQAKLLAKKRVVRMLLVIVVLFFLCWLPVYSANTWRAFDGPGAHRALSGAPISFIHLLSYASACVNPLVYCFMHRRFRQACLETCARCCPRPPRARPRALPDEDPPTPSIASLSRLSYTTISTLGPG
Description: In vitro binding of CCK2R-NIR compounds to HEK-CCK2R cells (cell bound fluorescence). Set-up: expressed in transfected cells; host or cells: HEK (human embryonic kidney) cells, HEK-CCK2R, gift from Dr. Mark Hellmich (UTMB). The settings on record: for Kd: 1 h at 37° C. As for the experimental part: FIG. 4 depicts the binding affinities of CCK2R-NIR compounds 21, 42-44 to CCK2R. CCK2R-positive HEK-CCK2R cancer cells were incubated for 1 h at 37° C. with increasing concentrations of compounds. Media was then removed, washed with fresh media three times, and replaced with PBS. Cell bound fluorescence was assayed as using fluorometer.
CCK2R-positive HEK-CCK2R cancer cells were incubated for 1 h at 37° C. with increasing concentrations of compounds. Media was then removed, washed with fresh media three times, and replaced with PBS. Cell bound fluorescence was assayed as using fluorometer.
FIG. 13 illustrates the binding affinity of […] to CCK2R. CCK2R-positive HEK-CCK2R cancer cells were incubated for 1 h at 37° C. with increasing concentrations of compound 21. Media was then removed, washed with fresh media three times, and replaced with PBS. Cell bound fluorescence was assayed as using fluorometer.
as §1
HEK cells that overexpress CCK2 were seeded into a T75 flask and allowed to form a monolayer over 48 h. After trypsin digestion, release cells were transferred into centrifuge tubes (1×10^6 cells/tube) and centrifuged. The medium was replaced with fresh medium containing increasing concentration of requisite CCK2R-Ligand-NIR dye compound in the presence or absence of 100-fold excess the ligand, a high affinity CCK2 receptor antagonist, and incubated for 1 h at 37° C. After rinsing with fresh medium (2×1.0 mL) and PBS (1×1.0 mL), cells were resuspended in PBS (1.0 mL) and cell bound fluorescence was analyzed (100,000 cells/sample) using a fluorometer (Cary, Agilent). The relative binding affinities were calculated using a plot of % cell bound fluorescence versus the log concentration of the test article using GraphPad Prism 4.

The subject of data set [1] is HEK-CCK2R tumor xenograft. As to the kind of experiment: Whole-body imaging and ex vivo tissue biodistribution in mice bearing HEK-CCK2R tumor xenografts. As for the experimental part: FIG. 2A illustrates the overlay of whole body fluorescence image over white light images after adjusting the threshold for compound 40. HEK-CCK2R tumor xenograft bearing mice were injected with 10 nmol of […] and imaged with IVIS imager (ex=745 nm, em=ICG, exposure time=1 s) at 2 h post-injection. After imaging, selected tissues were harvested, and tissues were imaged with IVIS imager (ex=745 nm, em=ICG, exposure time=1 s).
FIG. 2C depicts the overlay of whole body fluorescence image over white light images after adjusting the threshold for compound 41. HEK-CCK2R tumor xenograft bearing mice were injected with 10 nmol of […] and imaged with IVIS imager (ex=745 nm, em=ICG, exposure time=1 s) at 2 h post-injection. After imaging, selected tissues were harvested, and tissues were imaged with IVIS imager (ex=745 nm, em=ICG, exposure time=1 s).
FIG. 5A illustrates the analysis of compound 21 overlay of whole body fluorescence image over white light images after adjusting the threshold. HEK-CCK2R tumor xenograft bearing mice were injected with 10 nmol of 21 and imaged with IVIS imager (ex=745 nm, em=ICG, exposure time=1 s) at 2 h post-injection. After imaging, selected tissues were harvested, and tissues were imaged with IVIS imager (ex=745 nm, em=ICG, exposure time=1 s).
FIG. 9 depicts a head-to-head comparison of fluorescence in the tumors from the mice injected with CCK2R-targeted-NIR dye compounds 21, 40-44. Overlay of tumor fluorescence image over white light images. HEK-CCK2R tumor xenograft bearing mice were injected with 10 nmol of requisite compound and imaged with IVIS imager at 2 h post-injection. After imaging, tumor tissues were harvested, and imaged with IVIS imager (ex=745 nm, em=ICG, exposure time=1 s).
FIG. 14E depicts the in vivo efficacy and specificity of 21 by whole-body imaging with nude mice bearing HEK-CCK2R tumors.
FIG. 14F depicts the ex vivo tissue biodistribution of mice of FIG. 14E dissecting after whole-body imaging.
Athymic female nude (nu/nu) mice (5 weeks old, 18-20 g) were purchased from Envigo (Indianapolis, Ind.) and maintained on normal rodent diet (Teklad, Wis.). Animals were housed 5/cage in a barrier, pathogen-free cloaked rack. Autoclaved tap water and food were given as needed. The animals were housed in a sterile environment on a standard 12 hour light-dark cycle for the duration of the study. […]
six-weeks-old female nu/nu mice were inoculated subcutaneously with HEK-CCK2 cells (5.0×10^6/mouse in 50% high concentrated matrigel in GIBCO medium) on the shoulder. Growth of the tumors was measured in perpendicular directions every 2 days using a caliper (body weights were monitored on the same schedule), and the volumes of the tumors were calculated as 0.5×L×W^2 (L=longest axis and W=axis perpendicular to L in millimeters). […]

Data set [2] can be described thus: Excitation and emission spectra. It counts as physicochemical. As to conditions: FIG. 12. An excerpt:
FIG. 12 depicts the chemical structure, excitation and emission spectra of compound 21 (OTL81).

Setting [3] is: FIG. 14, mice bearing HEK-CCK2R tumor xenografts.

Where two headings read alike, the source gives them in different places.

As to `CC(C)(C)C(=O)CN1C(=O)[C@H](NC(=O)Nc2cccc(C(=O)N[C@H](CCC(=O)N[C@@H](Cc3ccc(OC4=C(/C=C/C5=[N+](CCCCS(=O)(=O)[O-])c6ccc(S(=O)(=O)O)cc6C5(C)C)CCC/C4=C\C=C4\N(CCCCS(=O)(=O)O)c5ccc(S(=O)(=O)O)cc5C4(C)C)cc3)C(=O)O)C(=O)O)c2)CN(C2CCCCC2)c2ccccc21` [Compound 21, 4-(2-((E)-2-((E)-2-(4-((S)-2-carboxy-2-((R)-4-carboxy-4-(3-(3-((R)-5-cyclohexyl-1-(3,3-dimethyl-2-oxobutyl)-2-oxo-2,3,4,5-tetrahydro-1H-benzo[b][1,4]diazepin-3-yl)ureido)benzamido)butanamido)ethyl)phenoxy)-3-(2-((E)-3,3-dimethyl-5-sulfo-1-(4-sulfobutyl)indolin-2-ylidene)ethylidene)cyclohex-1-en-1-yl)vinyl)-3,3-dimethyl-5-sulfo-3H-indol-1-ium-1-yl)butane-1-sulfonate], the “labelling of HEK-CCK2 cells” value in the data set on HEK-CCK2 cells is recorded as “efficiently label”. The Kd on CCK2R (FIG. 13, HEK-CCK2R cells, read-out: dissociation constant (KD)) is 1 nM. For the same compound, on CCK2R (Table 1, CCK2R-positive HEK-CCK2R cancer cells, read-out: KD), the Kd was determined as 0.67 nM. In addition, on CCK2R (in vitro binding affinity data, HEK-CCK2R cells), the “affinity for CCK2R (in words)” value is reported as “very high affinity”. For the same compound, the “fluorescence intensity in the tumors” value in data set [1] (10 nmol, 2 h post-injection) is recorded as “very high fluorescence intensity”. Also, the “tumor uptake, head-to-head comparison” value in data set [1] (FIG. 9, 10 nmol, 2 h post-injection, compounds 21, 40-44) was “highest tumor uptake”. Further, in data set [1] (setting [3]), the “tissue uptake (whole-body imaging and ex vivo biodistribution)” value was “solely taken up in CCK2R positive tumors with no accumulation in other tissues”; the tumor-to-background ratio entry is “very high”. Moreover, in data set [2], the Stokes shift is given as 20 nm, the emission wavelength is 796 nm and the excitation wavelength was 776 nm.
